Assays:
Format in all cases: physicochemical
[1] = Screening of antioxidant (tolterodine decomposition in H2O2 solution); settings: 25° C., 100 rpm, 2.5 days
Procedure: (§1) [Analytical Method] • Test solution: tolterodine (−0.5 mg/mL) • Mobile phase: 45:55 mixture solution of ammonium dihydrogen phosphate and methanol, pH 7.0 • HPLC condition: detector 220 nm, column ODS3 C-18
Tolterodine free base (500 mg) was mixed with ethanol (50 mL) in a 100 mL flask and 0.3% H2O2 solution was added thereto to a final volume of 100 mL.
Antioxidant, weighed 10 mg each, was added into two glass bottles. One bottle contained tolterodine and the antioxidant, while the other bottle contained only the antioxidant, which was prepared to exclude the peaks resulting from the decomposition of the antioxidant by H2O2.
Tolterodine solution (2 mL) or a 1:1 mixture solution of 0.3% H2O2 aqueous solution and ethanol (2 mL) were added to the two glass bottles containing the antioxidant. The bottles were agitated at 100 rpm and 25° C. for 2.5 days.

[2] = Stress decomposition test of tolterodine under acidic/basic/oxidizing conditions; settings: for Total decomposed substances (peak area ratio of decomposed substances of tolterodine): 24 hours, HPLC
Procedure: Tolterodine free base (20 mg) was added respectively to three 100 mL flasks. Each of the above flasks was then added with 0.1 M HCl (5 mL), 0.1 M NaOH (5 mL) and 0.3% H2O2 solution (5 mL), respectively, added with methanol to a final volume of 20 mL and was subjected to ultrasonic extraction for 10 minutes.
Each sample was allowed to stand at room temperature for 24 hours and decomposed substances of tolterodine were quantitated by HPLC as follows.
as §1

[3] = Stress decomposition test of tolterodine under heat conditions
Procedure: as §1
Tolterodine free base (25-30 mg) was weighed and added into four glass bottles which were then capped with plugs. Three of the glass bottles were placed in an oven preheated at 120° C. At 10 minutes, 20 minutes and 30 minutes, each glass bottle was taken out from the oven and was allowed to cool enough at room temperature. After adding methanol (100 mL) to the four glass bottles followed by ultrasonic extraction for 10 minutes, decomposed substances of tolterodine were quantitated by HPLC as in Reference Example 1.

[4] = tolterodine in ethanol/0.3% H2O2 with 10 mg of the named antioxidant

Structure (SMILES) | Total decomposed substances (peak area ratio of decomposed substances of tolterodine) [1, 4] [%] | further results
O=C(O)CC(O)(CC(=O)O)C(=O)O [Citric acid] | 1.46 | 
COc1ccc(O)c(C(C)(C)C)c1 [Butylated hydroxyanisole (BHA), Butylated hydroxyanisole] | 23.87 | 
O=C([O-])CN(CCN(CC(=O)[O-])CC(=O)[O-])CC(=O)[O-].[Ca+2].[Na+].[Na+] [Ethylenediaminetetraacetic acid calcium disodium salt] | 29.69 | 
Cc1ccc(O)c([C@H](CCN(C(C)C)C(C)C)c2ccccc2)c1 [tolterodine] |  | Total decomposed substances (peak area ratio of decomposed substances of tolterodine) ([1]; tolterodine in ethanol/0.3% H2O2, antioxidant: None): 26.08%; Total decomposed substances (peak area ratio of decomposed substances of tolterodine) ([2]; 0.1M HCl, room temperature): 0.59%; Total decomposed substances (peak area ratio of decomposed substances of tolterodine) ([2]; 0.1M NaOH, room temperature): 0.83%; Total decomposed substances (peak area ratio of decomposed substances of tolterodine) ([2]; 0.3% H2O2, room temperature): 4.74%; Production of decomposed substances of tolterodine under stress conditions (in words) ([2]; harsh oxidizing condition, compared with acid, base and heat): Much of decomposed substances of tolterodine were produced; Total decomposed substances (peak area ratio of decomposed substances of tolterodine) ([3]; 120° C./0 min): 0.45%; Total decomposed substances (peak area ratio of decomposed substances of tolterodine) ([3]; 120° C./10 min): 0.59%; Total decomposed substances (peak area ratio of decomposed substances of tolterodine) ([3]; 120° C./20 min): 0.63%; Total decomposed substances (peak area ratio of decomposed substances of tolterodine) ([3]; 120° C./30 min): 0.78%
O=C(O)CC(O)C(=O)O (racemic) [d,l-Malic acid] | 1.39 | 
O=C(O)C(O)C(O)C(=O)O (stereo not drawn) [l-Tartaric acid] | 1.44 | 
Cc1c(C)c2c(c(C)c1O)CCC(C)(CCCC(C)CCCC(C)CCCC(C)C)O2 (stereo not drawn) [d,l-α-Tocopherol] | 20.29 | 
CC(=O)Oc1c(C)c(C)c2c(c1C)CC[C@@](C)(CCC[C@H](C)CCC[C@H](C)CCCC(C)C)O2 [(+)-α-Tocopherol acetate] | 23.56 | 
N[C@@H](CCC(=O)O)C(=O)O [l-Glutamic acid] | 1.52 | 
O=S([O-])([O-])=S.[Na+].[Na+] [Sodium thiosulfate] | 1.94 | 
Cl.N[C@@H](CS)C(=O)O [l-Cysteine HCl] |  | Total decomposed substances (peak area ratio of decomposed substances of tolterodine) ([1]; tolterodine in ethanol/0.3% H2O2 with 10 mg of the named antioxidant, HCl): 1.70%
O=S([O-])[O-].[Na+].[Na+] [Sodium sulfite] | 5.67 | 

Now from value to compound, other results behind:

Total decomposed substances (peak area ratio of decomposed substances of tolterodine) [1, 4] [%] | Structure (SMILES) | further results
18.82 | Cc1cc(C(C)(C)C)c(O)c(C(C)(C)C)c1 [Butylated hydroxytoluene (BHT), Butylated hydroxytoluene] | 
19.94 | CCCCCCCCCCCCOC(=O)c1cc(O)c(O)c(O)c1 [Lauryl gallate] | 
1.21 | O=C1O[C@H]([C@@H](O)CO)C(O)=C1O [l-Ascorbic acid] | 
15.97 | CCCCCCCCOC(=O)c1cc(O)c(O)c(O)c1 [n-Octyl gallate] | 
13.00 | CCOC(=O)c1cc(O)c(O)c(O)c1 [Ethyl gallate] | 
1.94 | CCCCCCCCCCCCCCCC(=O)OC[C@H](O)[C@H]1OC(=O)C(O)=C1O [l-Ascorbic acid 6-palmitate] | 

From patent US9155715B2, “Transdermal composition comprising tolterodine” (SK Chemicals Co., Ltd., priority 2009, dated 2015)
